Molecular target: T1, trypsin-activated recombinant human renin (Homo sapiens, UniProt P00797)
T1 sequence (P00797 67-406): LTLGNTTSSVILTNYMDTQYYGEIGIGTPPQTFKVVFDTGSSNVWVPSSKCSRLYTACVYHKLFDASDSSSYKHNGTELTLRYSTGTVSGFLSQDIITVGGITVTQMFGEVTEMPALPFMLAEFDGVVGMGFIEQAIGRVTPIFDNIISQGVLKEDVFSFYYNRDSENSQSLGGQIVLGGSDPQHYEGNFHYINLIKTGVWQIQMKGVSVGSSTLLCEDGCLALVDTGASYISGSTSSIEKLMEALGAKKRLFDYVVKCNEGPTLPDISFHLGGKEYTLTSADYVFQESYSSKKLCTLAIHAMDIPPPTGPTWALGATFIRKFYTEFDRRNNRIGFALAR
Test: Renin fluorescence assay (internally quenched peptide substrate)
Type: biochemical
Conditions: compounds I*
Description: The sequence of this peptide corresponds to the sequence of human angiotensinogen. The following test protocol can be used. All reactions are carried out in a flat bottom white opaque microtiter plate. A 4 μL aliquot of 400 μM renin substrate (DABCYL-γ-[…]) in 192 μL assay buffer (50 mM BES, 150 mM NaCl, 0.25 mg/mL bovine serum albumin, pH7.0) is added to 4 μL of test compound in DMSO at various concentrations ranging from 10 μM to 1 nM final concentrations. Next, 100 μL of trypsin-activated recombinant human renin (final enzyme concentration of 0.2-2 nM) in assay buffer is added, and the solution is mixed by pipetting. The increase in fluorescence at 495 nm (excitation at 340 nm) is measured for 60-360 minutes at rt using a Perkin-Elmer Fusion microplate reader. The slope of a linear portion of the plot of fluorescence-increase as a function of time is then determined, and the rate is used for calculating percent inhibition in relation to uninhibited control. […] (Wang G. T. et al. Anal. Biochem. 1993, 210, 351; Nakamura, N. et al. J. Biochem. (Tokyo) 1991, 109, 741; Murakami, K. et al. Anal Biochem. 1981, 110, 232).

Row | IC50 [nM] | SMILES
1 | < 10 | CNC[C@H](CC1CCOCC1)NC(=O)N1CCC[C@@H]([C@@H](OCCNC(=O)OC)c2cc(F)ccc2C)C1 [I*-50a, methyl 2-((R)-(5-fluoro-2-methylphenyl)((R)-1-((S)-1-(methylamino)-3-(tetrahydro-2H-pyran-4-yl)propan-2-ylcarbamoyl)piperidin-3-yl)methoxy)ethylcarbamate]
2 | > 50 | CNC[C@H](CC1CCC(O)CC1)NC(=O)N1CCC[C@@H]([C@@H](OCCNC(=O)OC)c2cccc(F)c2)C1 (stereo partly drawn) [I*-51a, methyl 2-((R)-(3-fluorophenyl)((R)-1-((S)-1-(4-hydroxycyclohexyl)-3-(methylamino)propan-2-ylcarbamoyl)piperidin-3-yl)methoxy)ethylcarbamate]
3 | < 10 | CNC[C@H](CC1CCOCC1)NC(=O)N1CCC[C@@H]([C@@H](OCCNC(=O)OC)c2cc(C)cc(F)c2)C1 [I*-52a, methyl 2-((R)-(3-fluoro-5-methylphenyl)((R)-1-((S)-1-(methylamino)-3-(tetrahydro-2H-pyran-4-yl)propan-2-ylcarbamoyl)piperidin-3-yl)methoxy)ethylcarbamate]
4 | < 20 | CNC[C@@H](NC(=O)N1CCC[C@@H]([C@@H](OCCNC(=O)OC)c2cc(F)ccc2C)C1)[C@@H](O)C1CCCC1 [I*-53a, methyl 2-((R)-((R)-1-((1S,2R)-1-cyclopentyl-1-hydroxy-3-(methylamino)propan-2-ylcarbamoyl)piperidin-3-yl)(5-fluoro-2-methylphenyl)methoxy)ethylcarbamate]
5 | < 50 | CNCC(CC1CCCOC1)NC(=O)N1CCCC(C(O)(CCCNC(=O)OC)c2cccc(F)c2)C1 [I*-54a, methyl (S)-4-(3-fluorophenyl)-4-hydroxy-4-((3R)-1-((S)-1-(methylamino)-3-(tetrahydro-2H-pyran-3-yl)propan-2-ylcarbamoyl)piperidin-3-yl)butylcarbamate]
6 | < 1 | CNC[C@H](C[C@H]1CCCCOC1)NC(=O)N1CCC[C@@H]([C@@H](OCCNC(=O)OC)c2cccc(F)c2)C1 [I*-55a, methyl 2-((R)-(3-fluorophenyl)((R)-1-((S)-1-(methylamino)-3-((R)-oxepan-3-yl)propan-2-ylcarbamoyl)piperidin-3-yl)methoxy)ethylcarbamate]
7 | < 10 | CNC[C@H](C[C@H]1CCCOC1)NC(=O)N1CCCC[C@@H]([C@@H](OCCNC(=O)OC)c2cccc(F)c2)C1 [I*-56a, methyl 2-((R)-(3-fluorophenyl)((R)-1-((S)-1-(methylamino)-3-((R)-tetrahydro-2H-pyran-3-yl)propan-2-ylcarbamoyl)azepan-3-yl)methoxy)ethylcarbamate]
8 | < 10 | CNC[C@H](C[C@H]1CCCCOC1)NC(=O)N1CCC[C@@H]([C@@H](OCCNC(=O)OC)c2ccccc2F)C1 [I*-57a, methyl 2-((1R)-(2-fluorophenyl)((3R)-1-(1-(methylamino)-3-((R)-oxepan-3-yl)propan-2-ylcarbamoyl)piperidin-3-yl)methoxy)ethylcarbamate]
9 | < 10 | COC(=O)NCCO[C@@H](c1cc(F)ccc1C)[C@@H]1CCCN(C(=O)NC[C@@H](N)C[C@H]2CCCCOC2)C1 [I*-58a, methyl 2-((R)-((R)-1-((S)-2-amino-3-((R)-oxepan-3-yl)propylcarbamoyl)piperidin-3-yl)(5-fluoro-2-methylphenyl)methoxy)ethylcarbamate]
10 | < 10 | COC(=O)NCCO[C@@H](c1cccc(Cl)c1)[C@@H]1CCCN(C(=O)N[C@](C)(CN)CC2CCCCC2)C1 [I*-59a, methyl 2-((R)-((R)-1-((S)-1-amino-3-cyclohexyl-2-methylpropan-2-ylcarbamoyl)piperidin-3-yl)(3-chlorophenyl)methoxy)ethylcarbamate]
11 | < 1 | CNC[C@H](CC1CCCC1)NC(=O)N1CCC[C@@H]([C@@H](OCCNC(=O)OC)c2cc(Cl)ccc2C)C1 [I*-60a, methyl 2-((R)-(5-chloro-2-methylphenyl)((R)-1-((S)-1-cyclopentyl-3-(methylamino)propan-2-ylcarbamoyl)piperidin-3-yl)methoxy)ethylcarbamate]
12 | < 10 | CCNC(=O)CO[C@@H](c1cccc(Cl)c1)[C@@H]1CCCN(C(=O)N[C@H](CNC)C[C@H]2CCCCOC2)C1 [I*-61a, (R)-3-((R)-(3-chlorophenyl)(2-(ethylamino)-2-oxoethoxy)methyl)-N-((2S)-1-(methylamino)-3-((R)-oxepan-3-yl)propan-2-yl)piperidine-1-carboxamide]
13 | < 1 | CNC[C@H](CC1CCCCC1)NC(=O)N1CCC[C@@H]([C@@H](OCCNC(=O)OC)c2cc(F)ccc2F)C1 [I*-63a, methyl 2-((R)-((R)-1-((S)-1-cyclohexyl-3-(methylamino)propan-2-ylcarbamoyl)piperidin-3-yl)(2,5-difluorophenyl)methoxy)ethylcarbamate]
14 | < 1 | CNC[C@H](CC1CCCCC1)NC(=O)N1CCC[C@@H]([C@@H](OCCNC(=O)OC)c2cc(F)cc(F)c2)C1 [I*-64a, methyl 2-((R)-((R)-1-((S)-1-cyclohexyl-3-(methylamino)propan-2-ylcarbamoyl)piperidin-3-yl)(3,5-difluorophenyl)methoxy)ethylcarbamate]
15 | < 10 | CNC[C@H](CC1CCCCC1)NC(=O)N1CCC[C@@H]([C@@H](OCCNC(=O)OC)c2ccc(F)c(F)c2)C1 [I*-65a, methyl 2-((R)-((R)-1-((S)-1-cyclohexyl-3-(methylamino)propan-2-ylcarbamoyl)piperidin-3-yl)(3,4-difluorophenyl)methoxy)ethylcarbamate]
16 | < 10 | CNC[C@@H](NC(=O)N1CCC[C@@H]([C@@H](OCCNC(=O)OC)c2cccc(Cl)c2)C1)[C@@H](O)C1CCCC1 [I*-67a, methyl 2-((R)-(3-chlorophenyl)((R)-1-((1S,2R)-1-cyclopentyl-1-hydroxy-3-(methylamino)propan-2-ylcarbamoyl)piperidin-3-yl)methoxy)ethylcarbamate]
17 | < 1 | COC(=O)NCCO[C@@H](c1cccc(Cl)c1)[C@@H]1CCCN(C(=O)NC[C@@H](N)C[C@H]2CCCCOC2)C1 [I*-68a, methyl 2-((R)-((R)-1-((S)-2-amino-3-((R)-oxepan-3-yl)propylcarbamoyl)piperidin-3-yl)(3-chlorophenyl)methoxy)ethylcarbamate]
18 | < 50 | CNC[C@H](CC1CCOCC1)NC(=O)N1CCC[C@@H]([C@@H](OCCNC(=O)OC)c2cc(F)ccc2F)C1 [I*-69a, methyl 2-((R)-(2,5-difluorophenyl)((R)-1-((S)-1-(methylamino)-3-(tetrahydro-2H-pyran-4-yl)propan-2-ylcarbamoyl)piperidin-3-yl)methoxy)ethylcarbamate]
19 | < 20 | CNC[C@H](CC1CCOCC1)NC(=O)N1CCC[C@@H]([C@@H](OCCNC(=O)OC)c2cc(F)cc(F)c2)C1 [I*-70a, methyl 2-((R)-(3,5-difluorophenyl)((R)-1-((S)-1-(methylamino)-3-(tetrahydro-2H-pyran-4-yl)propan-2-ylcarbamoyl)piperidin-3-yl)methoxy)ethylcarbamate]
20 | < 20 | CNC[C@H](CC1CCOCC1)NC(=O)N1CCC[C@@H]([C@@H](OCCNC(=O)OC)c2cccc(F)c2F)C1 [I*-71a, methyl 2-((R)-(2,3-difluorophenyl)((R)-1-((S)-1-(methylamino)-3-(tetrahydro-2H-pyran-4-yl)propan-2-ylcarbamoyl)piperidin-3-yl)methoxy)ethylcarbamate]
21 | < 10 | CNC[C@@H](NC(=O)N1CCC[C@@H]([C@@H](OCCNC(=O)OC)c2cccc(F)c2F)C1)[C@@H](O)C1CCCC1 [I*-72a, methyl 2-((R)-((R)-1-((1S,2R)-1-cyclopentyl-1-hydroxy-3-(methylamino)propan-2-ylcarbamoyl)piperidin-3-yl)(2,3-difluorophenyl)methoxy)ethylcarbamate]
22 | < 10 | COC(=O)NCCO[C@@H](c1cc(F)cc(F)c1)[C@@H]1CCCN(C(=O)NC[C@@H](N)C[C@H]2CCCCOC2)C1 [I*-73a, methyl 2-((R)-((R)-1-((S)-2-amino-3-((R)-oxepan-3-yl)propylcarbamoyl)piperidin-3-yl)(3,5-difluorophenyl)methoxy)ethylcarbamate]
23 | < 20 | CNC[C@H](CC12CC3CC(CC1C3)C2)NC(=O)N1CCC[C@@H]([C@@H](OCCNC(=O)OC)c2ccccc2)C1 [I*-74a, methyl 2-((R)-((3R)-1-((S)-1-(3-noradamantyl)-3-(methylamino)propan-2-ylcarbamoyl)piperidin-3-yl)(phenyl)methoxy)ethylcarbamate]
